From ChEMBL document CHEMBL4689842, “EUbOPEN Chemogenomics Library wave 1” (2021)

Tested on: Fibroblast
Test: Incucyte cell viability with human fibroblast; further: filed as whole numbers so only -1 and 0 and 1 occur
Type: toxicity, cell-based
Conditions: 10 µM, compound concentration 10 uM
[1] = 0 h, replicate number 1, timepoint 0 hours
[2] = 6 h, replicate number 1, timepoint 6 hours
[3] = 12 h, replicate number 1, timepoint 12 hours
[4] = 18 h, replicate number 1, timepoint 18 hours
[5] = 24 h, replicate number 1, timepoint 24 hours
[6] = 0 h, replicate number 2, timepoint 0 hours
[7] = 24 h, replicate number 2, timepoint 24 hours
[8] = 12 h, replicate number 2, timepoint 12 hours
[9] = 18 h, replicate number 2, timepoint 18 hours
[10] = 6 h, replicate number 2, timepoint 6 hours

Row | SMILES | Growth Rate [1] | Growth Rate [2] | Growth Rate [3] | Growth Rate [4] | Growth Rate [5] | Growth Rate [6] | Growth Rate [7] | Growth Rate [8] | Growth Rate [9] | Growth Rate [10]
1 | S=C(NCCCc1c[nH]cn1)NCCCN(Cc1ccc(Cl)c(Cl)c1)c1ccc(Br)cn1 | 0 | 0 | 0 | 0 | 0 |  |  |  |  | 
2 | Cc1cc(C)c(S(=O)(=O)N(Cc2ccc(-c3cccc(S(C)(=O)=O)c3)cc2)Cc2ccc(C(F)(F)F)o2)c(C)c1 | 1 | 1 | 0 | 0 | 0 | 0 |  |  |  | 
3 | CCc1cccc(CC)c1NC(=O)c1nn(C)c2c1CCc1cnc(Nc3ccc(C(=O)NC4CCN(C)CC4)cc3OC(F)(F)F)nc1-2 | 0 | 1 | 0 | 0 | 0 |  | 1 |  |  | 
4 | Cl.Oc1ccc2c3c1O[C@H]1c4[nH]c5c(c4C[C@@]4(O)[C@@H](C2)N(CC2CC2)CC[C@]314)C[C@@]1(O)[C@H]2Cc3ccc(O)c4c3[C@@]1(CCN2CC1CC1)[C@H]5O4 | 0 | 0 | 0 | 0 | 0 | 1 | 1 | 1 |  | 
5 | O=C(Nc1cccnn1)N1CCC(=Cc2cccc(Oc3ccc(C(F)(F)F)cn3)c2)CC1 | 0 | 0 | 0 | 0 | 0 |  | 1 |  |  | 
6 | COc1cc(N2CCN(C)CC2)ccc1Nc1ncc2c(n1)N(C)c1ccccc1C(=O)N2C | 0 |  | 0 | 1 | 1 |  |  |  |  | 
7 | CCNc1cc(N[C@H]2CC[C@H](O)CC2)nc(Nc2ccc3c(ccn3Cc3ccccc3)c2)n1 |  | 0 | 0 | 0 | 0 |  |  |  |  | 
8 | CCOc1cc(C(=O)N2CCC(N3CCN(C)CC3)CC2)ccc1Nc1ncc2c(n1)N(C1CCCC1)c1ccccc1C(=O)N2C |  | 1 | 0 | 0 | 0 | 0 | 1 |  | 1 | 
9 | O=C1N/C(=N/c2ccccc2F)S/C1=C\c1ccc(C(=O)O)cc1 |  |  |  |  | 0 |  |  |  |  | 
10 | CN([C@@H](Cc1ccc(OS(=O)(=O)c2cccc3cnccc23)cc1)C(=O)N1CCN(c2ccccc2)CC1)S(=O)(=O)c1cccc2cnccc12 | 1 |  | 1 | 1 | 0 |  | 1 | 0 |  | 0
11 | O=C(Nc1ccc(Cl)cc1)Nc1cccc(-c2cccc(N3CCCC3)n2)c1 | 0 | 0 | 0 | 0 | 0 |  |  |  |  | 
12 | CCn1c(=O)c(-c2ccc(-c3cncs3)cc2Cl)cc2cnc(Nc3ccc(N4CCN(C)CC4)cc3)nc21 | 0 |  |  | 1 | 0 |  |  |  |  | 
13 | Cc1ccc(C(=O)Nc2cccc(C(F)(F)F)c2)cc1Nc1nc(-c2cccnc2)nc2c1cnn2C |  | 0 | 0 | 0 | 0 |  |  |  |  | 
14 | CCCS(=O)(=O)c1nc(NC2CC2)cc(-c2ccc3c(ccn3C3CC(C)(C)NC(C)(C)C3)c2)n1 | 0 | 0 | 0 | 0 | 0 |  |  |  | 1 | 
15 | COC(=N)c1nc2ccc3ncnc(Nc4ccc(OC)cc4F)c3c2s1 | 0 |  | 1 | 1 | 0 |  |  |  |  | 
16 | CNC(=O)c1ccc(Nc2nc(OC3CCCC3)c3c(-c4ccc5nc(C)oc5c4)c[nH]c3n2)c(OC)c1 | 0 |  | 0 | 0 | 0 |  |  |  |  | 0
17 | CCN1CCN(Cc2ccc(Nc3ncc(F)c(-c4cc(F)c5nc(C)n(C(C)C)c5c4)n3)nc2)CC1.CS(=O)(=O)O | 0 |  |  | 1 | 0 |  | 1 |  |  | 
18 | O=C(Nc1ccc(-c2ccnc(Nc3ccc(N4CCOCC4)cc3)n2)cc1)[C@@H]1CCCN1 | 0 |  |  | 1 | 0 |  |  |  |  | 
19 | CCN(CC)S(=O)(=O)Nc1cccc(-c2ccc3c(NC(=O)C4CC4)n[nH]c3c2)c1 |  | 0 | 0 | 0 | 0 |  |  |  |  | 
20 | CCc1cccc(CC)c1NC(=O)c1nn(C)c2c1CCc1cnc(Nc3ccc(N4CCN(C)CC4)cc3OC)nc1-2 |  | 0 | 0 | 0 | 0 | 1 |  |  |  | 
21 | Cl.O=c1c2cccn2c2ccccc2n1CCCN1CCC(c2ccc(Cl)cc2)CC1 | 1 | 0 | 0 | 0 | 0 |  |  |  |  | 
22 | CNc1cc(Oc2cc(C(=O)Nc3cc(N4CCN(C)CC4)cc(C(F)(F)F)c3)ccc2C)ncn1 | 0 | 0 | 0 | 0 | 0 |  |  |  |  | 
23 | Cl.O=C(c1ccc(Nc2nccc(-c3cc4ccccc4s3)n2)cc1)N1CCC(N2CCCC2)CC1 | 0 | 0 | 0 | 0 | 0 |  |  |  |  | 

Row | SMILES | Growth Rate [1] | Growth Rate [2] | Growth Rate [3] | Growth Rate [4] | Growth Rate [5] | Growth Rate [6] | Growth Rate [7] | Growth Rate [8] | Growth Rate [9] | Growth Rate [10]
24 | COc1ccc(S(=O)(=O)N(CCO)c2ccccc2CN(C)C/C=C/c2ccc(Cl)cc2)cc1.O=P(O)(O)O |  | 0 | 0 | 0 | 0 | 1 |  |  |  | 1
25 | Cc1ccc2nc(NCCN)c3ncc(C)n3c2c1.O=C(O)C(F)(F)F.O=C(O)C(F)(F)F |  | 0 | 0 | 0 | 0 | 0 |  |  |  | 
26 | NC(=O)c1cccc(-c2cc(Nc3ccc(OC(F)(F)F)cc3)ncn2)c1 | 1 | 0 | 0 | 0 | 0 | 0 | 1 | 1 | 1 | 1
27 | CN1C2CCC1CC(OC(c1ccc(F)cc1)c1ccc(F)cc1)C2.Cl (stereo not given) |  | 1 | 1 | 1 | 0 |  |  | 0 | 0 | 0
28 | CCOC(=O)c1c(C)[nH]c2ccc3c(c12)CN1CCc2cc(OC)ccc2C1O3 (stereo not given) |  | 0 | 0 | 0 | 0 |  |  |  |  | 
29 | C=CCn1c(=O)c2cnc(Nc3ccc(N4CCN(C)CC4)cc3)nc2n1-c1cccc(C(C)(C)O)n1 [ADAVOSERTIB] | 0 | 0 | 0 | 0 | 0 |  |  |  |  | 
30 | COc1cc(N2CCC(N3CCN(C)CC3)CC2)ccc1Nc1ncnc(Nc2ccccc2S(=O)(=O)C(C)C)n1 [ASP-3026] |  | 0 | 0 | 0 | 0 | 0 |  |  |  | 
31 | O=C(Nc1ccc(-n2nc(-c3cccnc3)cc2C(F)(F)F)cn1)c1ccc(-c2ccccc2)c(F)c1 [BI 2049] | 0 | 0 | 0 | 0 | 0 |  |  |  |  | 
32 | COCC(=O)NC/C=C/c1ccc2ncnc(Nc3ccc(Oc4ccc(C)nc4)c(C)c3)c2c1 [CP-724714] | 0 |  | 1 | 1 | 1 |  | 0 | 0 | 0 | 1
33 | COc1cc2ncnc(Nc3ccc(F)c(Cl)c3)c2cc1NC(=O)/C=C/CN1CCCCC1 [DACOMITINIB ANHYDROUS] |  | 0 | 0 | 0 | 0 | 1 |  |  |  | 
34 | C=C1/C(=C\C=C2/CCC[C@]3(C)[C@@H]([C@H](C)/C=C/[C@H](C)C(C)C)CC[C@@H]23)C[C@@H](O)C[C@@H]1O [DOXERCALCIFEROL] | 0 |  | 1 | 1 | 0 |  |  | 0 | 0 | 0
35 | CCCn1c(=O)c2[nH]c(-c3cnn(Cc4cccc(C(F)(F)F)c4)c3)nc2n(CC)c1=O [GS 6201] | 0 |  |  | 1 | 1 |  |  |  |  | 
36 | CCn1cc(-c2ccnc3[nH]c(-c4cccc(CN(C)C)c4)cc23)c(-c2ccc(NC(=O)N(C)C)cc2)n1 [GSK-1070916] | 0 | 1 | 0 | 0 | 0 |  |  | 1 |  | 
37 | CCN1CCN(c2ccc(Nc3cc(N(C)C(=O)Nc4c(Cl)c(OC)cc(OC)c4Cl)ncn3)cc2)CC1 [INFIGRATINIB] | 0 | 1 | 1 | 0 | 0 |  |  |  |  | 
38 | CN1CCC(=C2c3ccccc3CC(=O)c3sccc32)CC1.O=C(O)/C=C/C(=O)O [KETOTIFEN FUMARATE] | 0 | 0 | 0 | 0 | 0 |  |  |  |  | 
39 | COc1ccc(-c2ccc3c(N4CCOCC4)nc(N4C[C@@H](C)O[C@@H](C)C4)nc3n2)cc1CO [Ku-0063794] | 1 |  | 1 | 1 | 0 |  |  | 0 | 0 | 1
40 | CN(C)C(=O)C(CCN1CCC(O)(c2ccc(Cl)cc2)CC1)(c1ccccc1)c1ccccc1.Cl [LOPERAMIDE HYDROCHLORIDE] |  | 0 | 0 | 0 | 0 |  |  |  |  | 
41 | C[C@H]1Oc2cc(cnc2N)-c2c(nn(C)c2C#N)CN(C)C(=O)c2ccc(F)cc21 [LORLATINIB] |  | 0 | 0 | 0 | 0 | 0 |  |  |  | 
42 | O=C1NC(=O)C(c2cnc3ccccn23)=C1c1cn2c3c(cc(F)cc13)CN(C(=O)N1CCCCC1)CC2 [LY-2090314] |  | 0 | 0 | 0 | 0 | 1 |  |  |  | 
43 | CCOc1cc2ncc(C#N)c(Nc3ccc(OCc4ccccn4)c(Cl)c3)c2cc1NC(=O)/C=C/CN(C)C [NERATINIB] | 0 |  | 1 | 0 | 0 |  | 1 |  |  | 
44 | Cc1cn(-c2cc(NC(=O)c3ccc(C)c(Nc4nccc(-c5cccnc5)n4)c3)cc(C(F)(F)F)c2)cn1 [NILOTINIB] | 0 | 0 | 0 | 0 | 0 |  |  |  |  | 
45 | COc1cccc2cc(-c3nc([C@H]4CC[C@H](C(=O)O)CC4)n4ncnc(N)c34)[nH]c12 [OSI-027] | 0 |  | 0 | 0 | 0 |  |  | 1 |  | 
46 | CCCS(=O)(=O)Nc1ccc(F)c(C(=O)c2c[nH]c3ncc(Cl)cc23)c1F [PLX-4720] | 1 | 0 | 0 | 0 | 0 | 0 |  |  |  | 
